Reference: patent US20250034135A1, “ANTI-APOPTOTIC PROTEIN BCL-2 INHIBITOR, PHARMACEUTICAL COMPOSITION AND USES THEREOF” (HANGZHOU HEALZEN THERAPEUTICS CO., LTD., priority 2021, published 2025)

Biological target: BCL2 (Homo sapiens (Human), UniProt P10415)
Assay: Molecular level activity test of anti-apoptotic protein BCL2 (HTRF, binding to Bim peptide)
Settings: HTRF, binding of BCL2 to Bim peptide; read-out: BCL2 nM (inhibitory activity, IC50)
Method in brief: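 Step one: compound, supplied in 2% DMSO, is mixed with His-tagged BCL2 and biotinylated Bim peptide and reacted for 1 h. Step two: anti-His and streptavidin-XL665 reagents in detection buffer are added. Step three: after a 4 h room-temperature incubation, time-resolved fluorescence is measured.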

Sequence of BCL2 (P10415 whole entry): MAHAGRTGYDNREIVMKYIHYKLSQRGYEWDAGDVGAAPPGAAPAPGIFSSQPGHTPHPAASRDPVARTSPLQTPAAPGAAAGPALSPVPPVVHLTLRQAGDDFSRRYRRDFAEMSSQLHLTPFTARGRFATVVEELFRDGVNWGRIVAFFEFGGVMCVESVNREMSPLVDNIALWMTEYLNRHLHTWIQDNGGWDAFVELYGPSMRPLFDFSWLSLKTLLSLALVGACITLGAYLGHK

IC50	SMILES
< 10 nM	CC(=O)N1CCC(F)(CNc2c([N+](=O)[O-])cc(S(=O)(=O)NC(=O)c3cnc(N4CCC5(CC4)CC(N4CCC[C@H]4c4ccccc4C(C)C)C5)cc3Oc3cnc4[nH]ccc4c3)c3nc[nH]c23)CC1 [compound 027, (S)-4-((1H-pyrrolo[2,3-b]pyrid-5-yl)oxy)-N-((7-(((1-acetyl-4-fluoropiperid-4-yl)methyl)amino)-6-nitro-1H-benzo[d]imidazol-4-yl)sulfonyl)-6-(2-(2-(2-isopropylphenyl)pyrrolidin-1-yl)-7-azaspiro[3.5]non-7-yl) nicotinamide]
< 10 nM	COc1ccc(CN2CCN(C3CC4(CCN(c5cc(Oc6cnc7[nH]ccc7c6)c(C(=O)NS(=O)(=O)c6ccc(NC[C@H]7CC[C@](C)(O)CC7)c([N+](=O)[O-])c6)cc5F)CC4)C3)[C@H](c3ccccc3C(C)C)C2)c2c1OCO2 [compound 223, 2-((1H-pyrrolo[2,3-b]pyrid-5-yl)oxy)-5-fluoro-N-((4-((((1r, 4r)-4-hydroxy-4-methylcyclohexyl)methyl)amino)-3-nitrophenyl)sulfonyl)-4-(2-((R)-2-(2-isopropylphenyl)-4-((7-methoxybenzo[d][1,3]dioxycyclopent-4-yl)methyl)piperazin-1-yl)-7-azaspiro[3.5]non-7-yl)benzamide]
< 10 nM	COc1ccc(CN2CCN(C3CC4(CCN(c5cc(Oc6cnc7[nH]ccc7c6)c(C(=O)NS(=O)(=O)c6cc([N+](=O)[O-])c(NC[C@H]7CC[C@](C)(O)CC7)c7c6OCO7)cn5)CC4)C3)[C@H](c3ccccc3C(C)C)C2)cc1 [compound 137, 4-((1H-pyrrolo[2,3-b]pyrid-5-yl)oxy)-N-((7-((((1r, 4r)-4-hydroxy-4-methylcyclohexyl)methyl)amino)-6-nitrobenzo[d][1,3]dioxocyclopent-4-yl)sulfonyl)-6-(2-((R)-2-(2-isopropylphenyl)-4-(4-methoxybenzyl)piperazin-1-yl)-7-azaspiro[3.5]non-7-yl) nicotinamide]
< 10 nM	COc1ccc(CN2CCN(C3CC4(CCN(c5cc(Oc6cnc7[nH]ccc7c6)c(C(=O)NS(=O)(=O)c6cc([N+](=O)[O-])c(NCC7CCOCC7)c7scnc67)cc5F)CC4)C3)[C@H](c3ccccc3C(C)C)C2)cc1 [compound 122, (R)-2-((1H-pyrrolo[2,3-b]pyrid-5-yl)oxy)-5-fluoro-4-(2-(2-(2-isopropylphenyl)-4-(4-methoxybenzyl)piperazin-1-yl)-7-azaspiro[3.5]non-7-yl)-N-((6-nitro-7-(((tetrahydro-2H-pyran-4-yl)methyl)amino)benzo[d]thiazol-4-yl)sulfonyl)benzamide]
< 10 nM	COc1ccc(CN2CCN(C3CC4(CCN(c5cc(Oc6cnc7[nH]ccc7c6)c(C(=O)NS(=O)(=O)c6cc([N+](=O)[O-])c(NC[C@H]7COCCO7)c7c6OCO7)cc5F)CC4)C3)[C@H](c3ccccc3C(C)C)C2)cc1 [compound 123]
< 10 nM	COc1ccc(CN2CCN(C3CC4(CCN(c5cc(Oc6cnc7[nH]ccc7c6)c(C(=O)NS(=O)(=O)c6cc([N+](=O)[O-])c(NCC7(F)CCOCC7)c7c6OCO7)cc5F)CC4)C3)[C@H](c3ccccc3C(C)C)C2)cc1 [compound 106, (R)-2-((1H-pyrrolo[2,3-b]pyrid-5-yl)oxy)-5-fluoro-N-((7-(((4-fluorotetrahydro-2H-pyran-4-yl)methyl)amino)-6-nitrobenzo[d][1,3]dioxocyclopent-4-yl)sulfonyl)-4-(2-(2-(2-isopropylphenyl)-4-(4-methoxybenzyl)piperazin-1-yl)-7-azaspiro[3.5]non-7-yl)benzamide]
< 10 nM	CC(C)c1ccccc1[C@@H]1CN(Cc2cnn(C(C)C)c2)CCN1C1CC2(CCN(c3cc(Oc4cnc5[nH]ccc5c4)c(C(=O)NS(=O)(=O)c4ccc(NCC5(F)CCOCC5)c([N+](=O)[O-])c4)cc3F)CC2)C1 [compound 210, (R)-2-((1H-pyrrolo[2,3-b]pyrid-5-yl)oxy)-5-fluoro-N-((4-(((4-fluorotetrahydro-2H-pyran-4-yl)methyl)amino)-3-nitrophenyl)sulfonyl)-4-(2-(4-((1-isopropyl-1H-pyrazol-4-yl)methyl)-2-(2-isopropylphenyl)piperazin-1-yl)-7-azaspiro[3.5]non-7-yl)benzamide]
